The results in this text go back to ChEMBL document CHEMBL1212695, “An allosteric potentiator of M4 mAChR modulates hippocampal synaptic transmission” (Nat Chem Biol, 2008).

What is called EC50 is the midpoint of the concentration-response curve. By inhibition is commonly meant the drop in the measured response relative to a control, in per cent. Usually EC20 stands for the concentration at which the effect reaches the 20% level.

The structures appear in SMILES notation. Active and inactive are the calls of the source. The rule behind the calls is not given here.

Experiment [1] addresses T1, Muscarinic acetylcholine receptor M4 (Rattus norvegicus) (UniProt P08485).
T1 sequence (whole entry): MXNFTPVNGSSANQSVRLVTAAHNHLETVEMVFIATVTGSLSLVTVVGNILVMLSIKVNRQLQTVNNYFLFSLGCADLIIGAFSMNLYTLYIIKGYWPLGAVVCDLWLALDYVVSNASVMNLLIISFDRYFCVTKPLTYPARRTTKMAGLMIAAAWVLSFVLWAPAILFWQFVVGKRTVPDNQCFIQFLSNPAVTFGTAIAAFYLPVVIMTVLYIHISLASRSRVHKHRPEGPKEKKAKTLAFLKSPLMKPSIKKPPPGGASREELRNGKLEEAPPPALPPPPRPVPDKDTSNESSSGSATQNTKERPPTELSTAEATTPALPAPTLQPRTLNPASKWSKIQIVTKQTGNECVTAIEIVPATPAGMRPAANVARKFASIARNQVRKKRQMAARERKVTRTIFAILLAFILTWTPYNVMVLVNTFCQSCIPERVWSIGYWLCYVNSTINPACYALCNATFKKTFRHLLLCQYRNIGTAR
Nature of the experiment: (§1) Allosteric activation of rat recombinant muscarinic M4 receptor expressed in CHO cells assessed as potentiation of 10 uM acetylcholine-induced calcium mobilization after 1 hr by fluorescence assay. It is filed as functional, cell-based.

The target of experiment [2] is T2, Muscarinic acetylcholine receptor M1 (Rattus norvegicus) (UniProt P08482).
T2 sequence (whole entry): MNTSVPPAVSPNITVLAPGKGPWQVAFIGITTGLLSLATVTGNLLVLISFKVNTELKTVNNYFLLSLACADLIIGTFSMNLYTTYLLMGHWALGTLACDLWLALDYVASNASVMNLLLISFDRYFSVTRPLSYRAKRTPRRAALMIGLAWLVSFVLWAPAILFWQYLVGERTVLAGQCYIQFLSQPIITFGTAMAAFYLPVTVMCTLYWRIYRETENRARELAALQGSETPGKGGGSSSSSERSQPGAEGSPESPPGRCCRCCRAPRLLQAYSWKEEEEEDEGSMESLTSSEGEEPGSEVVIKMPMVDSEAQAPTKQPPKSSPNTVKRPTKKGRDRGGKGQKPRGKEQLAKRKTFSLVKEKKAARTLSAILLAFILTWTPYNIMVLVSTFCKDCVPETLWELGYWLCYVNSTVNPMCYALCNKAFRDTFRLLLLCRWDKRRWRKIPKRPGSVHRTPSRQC
Nature of the experiment: Allosteric activation of rat recombinant muscarinic M1 receptor expressed in CHO cells assessed as potentiation of acetylcholine-induced calcium mobilization at 10 uM after 1 hr by fluorescence assay. In kind it is functional, cell-based.

The target in experiment [3] is T3, Muscarinic acetylcholine receptor M2 (Rattus norvegicus) (UniProt P10980).
T3 sequence (whole entry): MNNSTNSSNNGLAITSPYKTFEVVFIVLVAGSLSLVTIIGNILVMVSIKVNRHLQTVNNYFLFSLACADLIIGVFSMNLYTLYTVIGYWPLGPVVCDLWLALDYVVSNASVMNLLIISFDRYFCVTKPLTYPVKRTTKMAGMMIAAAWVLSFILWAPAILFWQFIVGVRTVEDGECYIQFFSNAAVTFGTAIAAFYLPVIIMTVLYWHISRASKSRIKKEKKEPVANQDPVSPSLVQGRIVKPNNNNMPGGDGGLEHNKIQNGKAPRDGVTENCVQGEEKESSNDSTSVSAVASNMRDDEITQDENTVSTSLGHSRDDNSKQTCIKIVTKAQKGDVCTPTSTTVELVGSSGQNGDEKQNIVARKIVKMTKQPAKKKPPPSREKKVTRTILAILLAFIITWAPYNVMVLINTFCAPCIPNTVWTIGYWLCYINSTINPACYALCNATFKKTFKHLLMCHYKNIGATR
Nature of the experiment: Allosteric activation of rat recombinant muscarinic M2 receptor expressed in CHO cells assessed as potentiation of acetylcholine-induced calcium mobilization at 10 uM after 1 hr by fluorescence assay. In kind it is functional, cell-based. (Calcium flux is commonly read through the fluorescence of an indicator in the cells.)

Experiment [4] deals with Muscarinic acetylcholine receptor M3 (Rattus norvegicus) (UniProt P08483). Nature of the experiment: Allosteric activation of rat recombinant muscarinic M3 receptor expressed in CHO cells assessed as potentiation of acetylcholine-induced calcium mobilization at 10 uM after 1 hr by fluorescence assay. It is filed as functional, cell-based.
Experiment [5] concerns the target T4, Muscarinic acetylcholine receptor M5 (Rattus norvegicus) (UniProt P08911).
T4 sequence (whole entry): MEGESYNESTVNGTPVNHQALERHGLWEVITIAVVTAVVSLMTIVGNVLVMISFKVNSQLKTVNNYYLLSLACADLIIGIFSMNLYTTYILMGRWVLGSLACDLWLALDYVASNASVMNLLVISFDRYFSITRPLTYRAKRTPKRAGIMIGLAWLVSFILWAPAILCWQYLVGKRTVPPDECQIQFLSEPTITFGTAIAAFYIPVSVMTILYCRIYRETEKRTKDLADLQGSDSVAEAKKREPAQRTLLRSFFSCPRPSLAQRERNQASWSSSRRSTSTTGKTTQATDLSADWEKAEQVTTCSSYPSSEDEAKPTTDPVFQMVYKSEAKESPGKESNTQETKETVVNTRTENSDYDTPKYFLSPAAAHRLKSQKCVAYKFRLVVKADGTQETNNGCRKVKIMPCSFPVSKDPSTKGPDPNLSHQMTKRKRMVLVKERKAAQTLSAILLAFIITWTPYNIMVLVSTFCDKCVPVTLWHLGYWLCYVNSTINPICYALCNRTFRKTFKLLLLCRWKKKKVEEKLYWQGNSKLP
The experiment can be described thus: Allosteric activation of rat recombinant muscarinic M5 receptor expressed in CHO cells assessed as potentiation of acetylcholine-induced calcium mobilization at 10 uM after 1 hr by fluorescence assay. In kind it is functional, cell-based.

The target in experiment [6] is T5, Muscarinic acetylcholine receptor M4 (Rattus norvegicus, UniProt P08485).
T5 sequence (P08485 whole entry): T1 sequence (whole entry)
The experiment can be described thus: Allosteric activation of rat recombinant muscarinic M4 receptor expressed in CHO cells assessed as potentiation of 15 nM acetylcholine-induced calcium mobilization after 1 hr by fluorescence assay. It is filed as functional, cell-based.

The target of experiment [7] is T1, Muscarinic acetylcholine receptor M4 (Rattus norvegicus). Nature of the experiment: Allosteric activation of rat recombinant muscarinic M4 receptor expressed in CHO cells assessed as […] in acetylcholine EC50 for induction of calcium mobilization at 10 uM after 1 hr by fluorescence assay. In kind it is functional, cell-based.
In experiment [8] the target is T5, Muscarinic acetylcholine receptor M4. The experiment is described as §1. In kind it is functional, cell-based.
The target in experiment [9] is T1, Muscarinic acetylcholine receptor M4 (Rattus norvegicus). The experiment can be described thus: Agonist activity at muscarinic M4 receptor in Sprague-Dawley rat hippocampal CA1 pyramidal neuron assessed as reduction in excitatory postsynaptic current at 5 uM by whole-cell electrophysiology in presence of carbachol relative to control. It is filed as functional, tissue-based. As to conditions: Hippocampus.

The target is the same in experiment [10]. Nature of the experiment: Allosteric activation of rat recombinant muscarinic M4 receptor expressed in CHO cells assessed as induction of calcium mobilization after 1 hr by fluorescence assay. It is filed as functional, cell-based.

Chain of Muscarinic acetylcholine receptor M3 (Rattus norvegicus) (P08483 whole entry, looked up): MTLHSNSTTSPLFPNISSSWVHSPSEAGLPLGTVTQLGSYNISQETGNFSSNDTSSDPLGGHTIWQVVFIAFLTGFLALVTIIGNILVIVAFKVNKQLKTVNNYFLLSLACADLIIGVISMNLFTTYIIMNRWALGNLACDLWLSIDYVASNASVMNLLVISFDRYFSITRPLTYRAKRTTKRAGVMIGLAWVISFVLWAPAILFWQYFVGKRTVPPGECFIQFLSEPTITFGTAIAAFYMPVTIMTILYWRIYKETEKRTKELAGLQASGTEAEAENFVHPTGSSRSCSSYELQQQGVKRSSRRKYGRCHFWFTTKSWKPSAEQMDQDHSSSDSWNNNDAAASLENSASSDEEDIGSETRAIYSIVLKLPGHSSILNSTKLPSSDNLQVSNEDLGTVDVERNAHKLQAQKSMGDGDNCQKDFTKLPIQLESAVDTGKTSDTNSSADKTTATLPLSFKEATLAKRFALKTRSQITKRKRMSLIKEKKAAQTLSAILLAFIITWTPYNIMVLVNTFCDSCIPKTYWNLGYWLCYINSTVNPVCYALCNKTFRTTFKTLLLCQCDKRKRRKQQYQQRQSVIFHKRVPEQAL

With `Cc1cc(C)c2c(N)c(C(=O)N[C@H](C)c3ccccc3)sc2n1`, the result in experiment [1] was Active.

Consider `Cc1cc(C)c2c(N)c(C(=O)NCC(C)C)sc2n1`, for which the result in experiment [1] was Active.

Take `Cc1cc(C)c2c(N)c(C(=O)NCc3ccccc3)sc2n1`: the result in [2], in experiment [3], in experiment [4] and in experiment [5] was inactive. Moreover, the EC50 in experiment [6] was 1300 nM.

With `Cc1cc(C)c2c(N)c(C(=O)NC(C)C)sc2n1`, the outcome in experiment [2], in [3], in experiment [4] and in experiment [5] was inactive. In addition, the EC50 in experiment [6] is 6000 nM.

For `CCCNC(=O)c1sc2nc(C)cc(C)c2c1N`, in experiment [1], the result was Active.

As for `Cc1cc(C)c2c(N)c(C(=O)NCc3ccco3)sc2n1`, the result in experiment [2], in experiment [3], in experiment [4] and in [5] was inactive. For the same compound, the fold change (FC) in experiment [7] was 21.

Take `Cc1cc(C)c2c(N)c(C(=O)NCc3ccc(C(F)(F)F)cc3)sc2n1`: in experiment [7], the fold change (FC) was 37. For the same compound, the EC50 in [8] was 715 nM.

For `Cc1cc(C)c2c(N)c(C(=O)N[C@@H](C)c3ccccc3)sc2n1`, the inhibition in [9] turned out to be 61.6%. The result in experiment [1] was inactive.

With `CCNC(=O)c1sc2nc(C)cc(C)c2c1N`, the result in [1] was Active.

As for `Cc1cc(C)c2c(N)c(C(=O)NC3CC3)sc2n1`, in experiment [1], the outcome was Active.

With `Cc1cc(C)c2c(N)c(C(=O)NC(C)(C)C)sc2n1`, the result in [1] was Active.

Turning to `Cc1cc(C)c2c(N)c(C(=O)NCc3ccc(F)cc3)sc2n1`, in experiment [7], the fold change (FC) worked out at 30. Moreover, in experiment [8], the EC50 was determined as 300 nM.

With `CC(=O)OCC[N+](C)(C)C`, in experiment [10], the EC20 came out at 15 nM and the EC100 stood at 10 µM.
